pIC50, pKi: −log10 of the molar value.
Legend:
[1] = target: Beta-3 adrenergic receptor (Homo sapiens, UniProt P13945); assay: DRUGMATRIX: Adrenergic beta3 radioligand binding (ligand: [125I] Cyanopindolol); assay type: cell membranes, HEK293, Membrane; conditions: Not Active = under 50% inhibition at 10 µM; for IC50: hek293; for pIC50: read-out: IC50; for pKi: read-out: Ki
[2] = target: Aldo-keto reductase family 1 member B1 (Rattus norvegicus, UniProt P07943); assay: biochemical; assay type: tissue-based, Lens of camera-type eye;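 also: inhibition of aldose reductase enzyme activity, measured with DL-glyceraldehyde as the substrate; in other assays of this panel Not Active means under 50% inhibition at 10 µM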
[3] = DRUGMATRIX: ATPase, Na+/K+ enzyme inhibition (substrate: ATP); assay type: tissue-based, Sus scrofa, Heart; conditions: Not Active = under 50% inhibition at 10 µM
[4] = target: 5-hydroxytryptamine receptor 4 (Cavia porcellus, UniProt O70528); assay type: cell membranes, Dunkin-Hartley, Striatum, Membrane; also: in other assays of this panel Not Active means under 50% inhibition at 10 µM
5-hydroxytryptamine receptor 4, sequence (O70528 whole entry): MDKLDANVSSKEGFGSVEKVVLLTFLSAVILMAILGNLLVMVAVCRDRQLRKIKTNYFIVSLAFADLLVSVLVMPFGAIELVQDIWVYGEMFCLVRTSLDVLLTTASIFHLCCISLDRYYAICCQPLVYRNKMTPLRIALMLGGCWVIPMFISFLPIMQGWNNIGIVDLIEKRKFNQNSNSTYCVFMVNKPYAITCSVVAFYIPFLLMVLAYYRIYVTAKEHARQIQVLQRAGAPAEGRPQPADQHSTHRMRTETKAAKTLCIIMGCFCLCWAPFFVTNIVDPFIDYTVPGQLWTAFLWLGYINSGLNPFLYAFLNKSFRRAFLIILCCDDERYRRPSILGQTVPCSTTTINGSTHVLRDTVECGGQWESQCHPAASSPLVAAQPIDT

[5] = DRUGMATRIX: Calcium Channel Type L, Phenylalkylamine radioligand binding (ligand: [3H] (-)-Desmethoxyverapamil (D-888)); assay type: cell membranes, Rattus norvegicus, Wistar, Brain, Membrane; conditions: Not Active = under 50% inhibition at 10 µM; for pIC50: read-out: IC50; for pKi: read-out: Ki
[6] = DRUGMATRIX: Glutamate, AMPA radioligand binding (ligand: [3H] AMPA); assay type: cell membranes, Rattus norvegicus, Wistar, Cerebral cortex, Membrane; conditions: Not Active = under 50% inhibition at 10 µM
[7] = target: Matrix metalloproteinase-9 (Homo sapiens, UniProt P14780); assay type: cell-based;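 also: inhibition of isolated MMP-9 enzyme activity toward a synthetic peptide substrate, from the DrugMatrix protease screening panel; in other assays of this panel Not Active means under 50% inhibition at 10 µM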
Matrix metalloproteinase-9, sequence (P14780 whole entry): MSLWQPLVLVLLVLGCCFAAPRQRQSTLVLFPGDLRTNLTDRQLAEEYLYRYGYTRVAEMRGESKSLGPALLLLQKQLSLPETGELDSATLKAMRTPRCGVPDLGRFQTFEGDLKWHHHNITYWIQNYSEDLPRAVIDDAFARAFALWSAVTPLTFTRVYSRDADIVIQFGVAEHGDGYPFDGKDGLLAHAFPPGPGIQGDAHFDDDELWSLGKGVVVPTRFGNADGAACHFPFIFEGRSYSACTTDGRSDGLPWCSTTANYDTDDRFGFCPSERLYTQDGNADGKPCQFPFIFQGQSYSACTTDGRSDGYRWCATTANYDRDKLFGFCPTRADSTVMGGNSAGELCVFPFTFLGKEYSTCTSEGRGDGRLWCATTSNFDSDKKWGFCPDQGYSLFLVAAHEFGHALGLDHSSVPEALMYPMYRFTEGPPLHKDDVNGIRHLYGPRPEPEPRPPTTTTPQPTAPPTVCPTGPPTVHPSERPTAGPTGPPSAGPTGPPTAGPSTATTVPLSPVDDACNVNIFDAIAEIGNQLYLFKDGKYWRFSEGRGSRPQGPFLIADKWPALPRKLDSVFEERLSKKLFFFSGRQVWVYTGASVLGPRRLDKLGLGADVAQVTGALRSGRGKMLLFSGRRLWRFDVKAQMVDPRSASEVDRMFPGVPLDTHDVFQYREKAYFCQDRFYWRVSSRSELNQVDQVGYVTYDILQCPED

Beta-3 adrenergic receptor, sequence (P13945 whole entry): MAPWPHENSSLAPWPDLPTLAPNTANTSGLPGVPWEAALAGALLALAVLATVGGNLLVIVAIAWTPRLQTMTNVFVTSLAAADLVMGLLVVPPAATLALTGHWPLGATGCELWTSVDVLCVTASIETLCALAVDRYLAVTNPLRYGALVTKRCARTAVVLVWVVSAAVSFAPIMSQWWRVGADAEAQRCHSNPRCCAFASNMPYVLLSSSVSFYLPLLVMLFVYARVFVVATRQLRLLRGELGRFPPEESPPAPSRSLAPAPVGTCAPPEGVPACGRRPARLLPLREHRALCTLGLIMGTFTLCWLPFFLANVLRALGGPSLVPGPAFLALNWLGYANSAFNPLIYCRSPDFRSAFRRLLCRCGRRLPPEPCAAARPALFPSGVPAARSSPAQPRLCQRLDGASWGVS

| Compound | IC50 [1] | IC50 [2] | IC50 [3] | Ki [3] | IC50 [4] | IC50 [5] | Ki [5] | IC50 [6] | Ki [6] | IC50 [7] | pIC50 [5] | pKi [5] | pIC50 [1] | pKi [1] | pIC50 ([3]; read-out: IC50) |
| --- | --- | --- | --- | --- | --- | --- | --- | --- | --- | --- | --- | --- | --- | --- | --- |
| O=C(O)c1cc(-c2ccc(F)cc2F)ccc1O [DIFLUNISAL] | Not Active | Not Active | Not Active | Not Active | Not Active | Not Active | Not Active | Not Active | Not Active | Not Active | – | – | – | – | – |
| CCn1cc(C(=O)O)c(=O)c2cc(F)c(N3CCNC(C)C3)c(F)c21 (stereo unspecified) [LOMEFLOXACIN] | Not Active | Not Active | Not Active | Not Active | Not Active | Not Active | Not Active | Not Active | Not Active | Not Active | – | – | – | – | – |
| CN(C)C(=O)Oc1cccc([N+](C)(C)C)c1.[Br-] [NEOSTIGMINE BROMIDE] | Not Active | Not Active | Not Active | Not Active | Not Active | Not Active | Not Active | Not Active | Not Active | Not Active | – | – | – | – | – |
| CN1CCCC(CN2c3ccccc3Sc3ccccc32)C1 (stereo unspecified) [MEPAZINE] | Not Active | Not Active | Not Active | Not Active | Not Active | – | – | Not Active | Not Active | Not Active | 5.81 | 5.82 | – | – | – |
| ClC(Cl)(Cl)Cl [CARBON TETRACHLORIDE] | Not Active | Not Active | Not Active | Not Active | Not Active | Not Active | Not Active | Not Active | Not Active | Not Active | – | – | – | – | – |
| CCN(CC)CCCC(C)Nc1c2ccc(Cl)cc2nc2ccc(OC)cc12 (stereo unspecified) [QUINACRINE] | Not Active | Not Active | Not Active | Not Active | Not Active | – | – | Not Active | Not Active | Not Active | 6.13 | 6.14 | – | – | – |
| CC[C@H]1[C@@H]2C[C@H]3[C@@H]4N(C)c5ccccc5[C@]45C[C@@H]([C@@H]2[C@H]5O)N3[C@@H]1O [AJMALINE] | Not Active | Not Active | Not Active | Not Active | Not Active | Not Active | Not Active | Not Active | Not Active | Not Active | – | – | – | – | – |
| C[C@H]1[C@H](NC(=O)/C(=N\OC(C)(C)C(=O)O)c2csc(N)n2)C(=O)N1S(=O)(=O)O [AZTREONAM] | Not Active | Not Active | Not Active | Not Active | Not Active | Not Active | Not Active | Not Active | Not Active | Not Active | – | – | – | – | – |
| CO/N=C(\C(=O)N[C@@H]1C(=O)N2C(C(=O)O)=C(COC(C)=O)CS[C@H]12)c1csc(N)n1 [CEFOTAXIME] | Not Active | Not Active | Not Active | Not Active | Not Active | Not Active | Not Active | Not Active | Not Active | Not Active | – | – | – | – | – |
| CC(C)c1c(C(=O)Nc2ccccc2)c(-c2ccccc2)c(-c2ccc(F)cc2)n1CC[C@@H](O)C[C@@H](O)CC(=O)O [ATORVASTATIN] | Not Active | Not Active | Not Active | Not Active | Not Active | Not Active | Not Active | Not Active | Not Active | Not Active | – | – | – | – | – |
| CC(C)C[C@H]1C(=O)N2CCC[C@H]2[C@]2(O)O[C@](NC(=O)[C@@H]3C=C4c5cccc6[nH]cc(c56)C[C@H]4N(C)C3)(C(C)C)C(=O)N12 [ERGOCRYPTINE] | – | Not Active | Not Active | Not Active | Not Active | Not Active | Not Active | Not Active | Not Active | Not Active | – | – | 5.60 | 5.73 | – |
| CCN(C(C)=O)c1cccc(-c2ccnc3c(C#N)cnn23)c1 [ZALEPLON] | Not Active | Not Active | Not Active | Not Active | Not Active | Not Active | Not Active | Not Active | Not Active | Not Active | – | – | – | – | – |
| N[C@@H](Cn1ccc(=O)c(O)c1)C(=O)O [L-MIMOSINE] | Not Active | Not Active | Not Active | Not Active | Not Active | Not Active | Not Active | Not Active | Not Active | Not Active | – | – | – | – | – |
| Nc1cc(-c2ccncc2)c[nH]c1=O [INAMRINONE] | Not Active | Not Active | Not Active | Not Active | Not Active | Not Active | Not Active | Not Active | Not Active | Not Active | – | – | – | – | – |
| NC(=O)c1cccc(N)c1 [3-AMINOBENZAMIDE] | Not Active | Not Active | Not Active | Not Active | Not Active | Not Active | Not Active | Not Active | Not Active | Not Active | – | – | – | – | – |
| NC(=O)c1cccnc1 [NIACINAMIDE] | Not Active | Not Active | Not Active | Not Active | Not Active | Not Active | Not Active | Not Active | Not Active | Not Active | – | – | – | – | – |
| CCC1=C(C)CN(C(=O)NCCc2ccc(S(=O)(=O)NC(=O)N[C@H]3CC[C@H](C)CC3)cc2)C1=O [GLIMEPIRIDE] | Not Active | Not Active | Not Active | Not Active | Not Active | Not Active | Not Active | Not Active | Not Active | Not Active | – | – | – | – | – |
| CC(C)NCC(O)c1ccccc1Cl (stereo unspecified) [CLORPRENALINE] | Not Active | Not Active | Not Active | Not Active | Not Active | Not Active | Not Active | Not Active | Not Active | Not Active | – | – | – | – | – |
| CC(=O)OCC(=O)[C@@]12OC(C)(C)O[C@@H]1C[C@H]1[C@@H]3C[C@H](F)C4=CC(=O)C=C[C@]4(C)[C@@]3(F)[C@@H](O)C[C@@]12C [FLUOCINONIDE] | Not Active | Not Active | Not Active | Not Active | Not Active | Not Active | Not Active | Not Active | Not Active | Not Active | – | – | – | – | – |
| COc1cccc2c1C(=O)c1c(O)c3c(c(O)c1C2=O)C[C@@](O)(C(C)=O)C[C@@H]3O[C@H]1C[C@H](N)[C@H](O)[C@H](C)O1 [DAUNORUBICIN] | Not Active | Not Active | Not Active | Not Active | Not Active | Not Active | Not Active | Not Active | Not Active | Not Active | – | – | – | – | – |
| COc1ccccc1N | Not Active | Not Active | Not Active | Not Active | Not Active | Not Active | Not Active | Not Active | Not Active | Not Active | – | – | – | – | – |
| CC[C@]1(O)C[C@@H]2CN(CCc3c([nH]c4ccccc34)[C@@](C(=O)OC)(c3cc4c(cc3OC)N(C)[C@H]3[C@@](O)(C(N)=O)[C@H](O)[C@]5(CC)C=CCN6CC[C@]43[C@@H]65)C2)C1 [VINDESINE] | Not Active | Not Active | Not Active | Not Active | Not Active | Not Active | Not Active | Not Active | Not Active | Not Active | – | – | – | – | – |
| CCOc1nc2cccc(C(=O)O)c2n1Cc1ccc(-c2ccccc2-c2nnn[nH]2)cc1 | – | Not Active | Not Active | Not Active | Not Active | Not Active | Not Active | Not Active | Not Active | Not Active | – | – | 5.37 | 5.49 | – |
| C[S+](C)[O-] [DIMETHYL SULFOXIDE] | Not Active | Not Active | Not Active | Not Active | Not Active | Not Active | Not Active | Not Active | Not Active | Not Active | – | – | – | – | – |
| C[C@@H]1O[C@@H](O[C@H]2C[C@@H](O)[C@]3(CO)[C@H]4[C@H](O)C[C@]5(C)[C@@H](C6=CC(=O)OC6)CC[C@]5(O)[C@@H]4CC[C@]3(O)C2)[C@H](O)[C@H](O)[C@H]1O [OUABAIN] | Not Active | Not Active | – | – | Not Active | Not Active | Not Active | Not Active | Not Active | Not Active | – | – | – | – | 6.17 |
| C#C[C@]1(O)CC[C@H]2[C@@H]3CCC4=CC(=O)CC[C@]4(C)[C@H]3CC[C@@]21C [ETHISTERONE] | Not Active | Not Active | Not Active | Not Active | Not Active | Not Active | Not Active | Not Active | Not Active | Not Active | – | – | – | – | – |
| O=C(c1ccccc1F)N1CCC(Cc2ccccc2)CC1 | Not Active | Not Active | Not Active | Not Active | Not Active | Not Active | Not Active | Not Active | Not Active | Not Active | – | – | – | – | – |
